Laboratory results reported in ChEMBL document CHEMBL1151440, “Safety and pharmacokinetics of GSK364735, a human immunodeficiency virus type 1 integrase inhibitor, following single and repeated administration in healthy adult subjects” (Antimicrob Agents Chemother, 2007).

Key:
[1] = Tmax in human at 100 mg administered with fat meal every 12 hrs for 8 days measured on day 1; type: ADME, organism-based; settings: in vivo
[2] = AUC (0 to infinity) in fasted human at 200 mg administered as single dose; type: ADME, organism-based; set-up: dose 200 mg, time infinity; settings: plasma
[3] = Terminal elimination half life in human at 100 mg administered with fat meal every 12 hrs for 8 days measured on day 8; type: ADME, organism-based; settings: in vivo, read-out: beta t1/2 (converted)
[4] = Apparent oral clearance in human at 200 mg administered with fat meal every 8 hrs for 8 days measured on day 8; type: ADME, organism-based; settings: in vivo
Homo sapiens [5] = assay: Toxicity in human assessed as flatulence at 50 to 200 mg administered as single dose; type: organism-based; settings: in vivo
[6] = AUC (0 to infinity) in human at 200 mg administered with fat meal as single dose; type: ADME, organism-based; set-up: dose 200 mg, time infinity; settings: plasma
Rhesus monkey = assay: Clearance in iv dosed monkey assessed as liver blood flow; type: ADME, organism-based, Macaca mulatta; settings: in vivo
Rattus norvegicus = assay: Clearance in iv dosed rat assessed as liver blood flow; type: ADME, organism-based; settings: in vivo
[7] = tested on: Human immunodeficiency virus 1; assay: Antiviral activity against HIV1 BaL in peripheral blood lymphocytes; type: functional, organism-based; settings: Human immunodeficiency virus 1, BaL
[8] = Tmax in human at 200 mg administered with fat meal every 12 hrs for 8 days measured on day 1; type: ADME, organism-based; settings: in vivo
[9] = Cmax in human at 200 mg administered with fat meal every 12 hrs for 8 days measured on day 8; type: ADME, organism-based; set-up: dose 200 mg; settings: in vivo
[10] = Plasma concentration in human at 200 mg administered with fat meal every 8 hrs for 8 days measured on day 1 after 12 hrs of first dose; type: ADME, organism-based
Homo sapiens [11] = species: Homo sapiens; assay: Toxicity in human assessed as headache at 400 mg daily for 8 days; type: organism-based; settings: in vivo, 192 h
[12] = AUC (0 to infinity) in human at 200 mg administered with fat meal every 8 hrs for 8 days measured on day 1; type: ADME, organism-based; set-up: dose 200 mg, time infinity; settings: plasma
[13] = Cmax in human at 400 mg administered with fat meal daily for 8 days measured on day 1; type: ADME, organism-based; set-up: dose 400 mg; settings: in vivo
[14] = Apparent oral clearance in human at 200 mg administered with fat meal as single dose; type: ADME, organism-based; settings: in vivo
Homo sapiens [15] = assay: Toxicity in human assessed as adverse effect at 50 to 200 mg administered as single dose; type: organism-based; settings: in vivo
[16] = Cmax in fasted human at 50 mg administered as single dose; type: ADME, organism-based; set-up: dose 50 mg; settings: in vivo
[17] = Apparent oral clearance in fasted human at 400 mg administered as single dose; type: ADME, organism-based; settings: in vivo
Homo sapiens [18] = assay: Toxicity in human assessed as adverse effect at 200 mg administered every 8 hrs for 8 days; type: organism-based; settings: in vivo
[19] = Apparent oral clearance in human at 200 mg administered with fat meal every 12 hrs for 8 days measured on day 1; type: ADME, organism-based; settings: in vivo
[20] = Apparent oral clearance in human at 400 mg administered with fat meal daily for 8 days measured on day 8; type: ADME, organism-based; settings: in vivo
[21] = Terminal elimination half life in human at 200 mg administered with fat meal as single dose; type: ADME, organism-based; settings: in vivo, read-out: beta t1/2 (converted)
[22] = Tmax in human at 100 mg administered with fat meal every 12 hrs for 8 days measured on day 8; type: ADME, organism-based; settings: in vivo
Homo sapiens [23] = assay: Toxicity in human assessed as adverse effect at 50 mg administered every 12 hrs for 8 days; type: organism-based; settings: in vivo
Homo sapiens [24] = assay: Toxicity in human assessed as changes in hematology at 50 to 400 mg after sequential repeated administration for 8 days; type: organism-based; settings: in vivo, 192 h
Homo sapiens [25] = species: Homo sapiens; assay: Toxicity in human assessed as adverse effect at 400 mg daily for 8 days; type: organism-based; settings: in vivo, 192 h
[26] = Cmax in fasted human at 400 mg administered as single dose; type: ADME, organism-based; set-up: dose 400 mg; settings: in vivo
[27] = Terminal elimination half life in human at 200 mg administered with fat meal every 12 hrs for 8 days measured on day 8; type: ADME, organism-based; settings: in vivo, read-out: beta t1/2 (converted)
Homo sapiens [28] = assay: Toxicity in human assessed as changes in 12-lead ECG at 50 to 200 mg administered as single dose; type: organism-based; settings: in vivo
[29] = Plasma concentration in human at 100 mg administered with fat meal every 12 hrs for 8 days measured on day 1 after 12 hrs of first dose; type: ADME, organism-based
Homo sapiens [30] = assay: Toxicity in human assessed as changes in continuous telemetry monitoring at 50 to 200 mg administered as single dose; type: organism-based; settings: in vivo
[31] = Tmax in fasted human at 50 mg administered as single dose; type: ADME, organism-based; settings: in vivo
[32] = Apparent oral clearance in human at 100 mg administered with fat meal every 12 hrs for 8 days measured on day 8; type: ADME, organism-based; settings: in vivo
Homo sapiens [33] = assay: Toxicity in human assessed as adverse effect at 200 mg administered every 12 hrs for 8 days; type: organism-based; settings: in vivo
Homo sapiens [34] = assay: Toxicity in human assessed as changes in hematology at 50 to 200 mg administered as single dose; type: organism-based; settings: in vivo
[35] = AUC (0 to 12 hrs) in human at 200 mg administered with fat meal every 12 hrs for 8 days measured on day 8; type: ADME, organism-based; set-up: dose 200 mg, time < 12 hr; settings: plasma
[36] = Terminal elimination half life in human at 200 mg administered with fat meal every 8 hrs for 8 days measured on day 8; type: ADME, organism-based; settings: in vivo, read-out: beta t1/2 (converted)
[37] = Plasma concentration in human at 50 mg administered with fat meal every 12 hrs for 8 days measured on day 1 after 12 hrs of first dose; type: ADME, organism-based
[38] = Tmax in human at 50 mg administered with fat meal every 12 hrs for 8 days measured on day 1; type: ADME, organism-based; settings: in vivo
[39] = Terminal elimination half life in human at 400 mg administered with fat meal daily for 8 days measured on day 8; type: ADME, organism-based; settings: in vivo, read-out: beta t1/2 (converted)
Homo sapiens [40] = assay: Toxicity in human assessed as dizziness at 50 mg administered every 12 hrs for 8 days; type: organism-based; settings: in vivo
[41] = Apparent oral clearance in fasted human at 50 mg administered as single dose; type: ADME, organism-based; settings: in vivo
[42] = Cmax in human at 200 mg administered with fat meal as single dose; type: ADME, organism-based; set-up: dose 200 mg; settings: in vivo
Homo sapiens [43] = species: Homo sapiens; assay: Protein binding in human plasma by equilibrium dialysis assay; settings: read-out: PB
[44] = AUC (0 to 24 hrs) in human at 400 mg administered with fat meal daily for 8 days measured on day 8; type: ADME, organism-based; set-up: dose 400 mg, time < 24 hr; settings: plasma
Homo sapiens [45] = assay: Toxicity in human assessed as dizziness at 200 mg administered every 8 hrs for 8 days; type: organism-based; settings: in vivo
[46] = AUC (0 to infinity) in fasted human at 50 mg administered as single dose; type: ADME, organism-based; set-up: dose 50 mg, time infinity; settings: plasma
[47] = tested on: Human immunodeficiency virus 1; assay: Antiviral activity against HIV1 BaL in peripheral blood lymphocytes in presence of 100% human serum; type: functional, organism-based; settings: Human immunodeficiency virus 1, BaL
[48] = Cmax in human at 50 mg administered with fat meal every 12 hrs for 8 days measured on day 1; type: ADME, organism-based; set-up: dose 50 mg; settings: in vivo
[49] = Apparent oral clearance in fasted human at 100 mg administered as single dose; type: ADME, organism-based; settings: in vivo
[50] = Apparent oral clearance in human at 50 mg administered with fat meal every 12 hrs for 8 days measured on day 1; type: ADME, organism-based; settings: in vivo
[51] = Terminal elimination half life in human at 200 mg administered with fat meal every 8 hrs for 8 days measured on day 1; type: ADME, organism-based; settings: in vivo, read-out: beta t1/2 (converted)
[52] = Terminal elimination half life in human at 50 mg administered with fat meal every 12 hrs for 8 days measured on day 8; type: ADME, organism-based; settings: in vivo, read-out: beta t1/2 (converted)
[53] = Cmax in human at 200 mg administered with fat meal every 8 hrs for 8 days measured on day 8; type: ADME, organism-based; set-up: dose 200 mg; settings: in vivo
[54] = AUC (0 to 8 hrs) in human at 200 mg administered with fat meal every 8 hrs for 8 days measured on day 8; type: ADME, organism-based; set-up: time < 8 hr, dose 200 mg; settings: plasma
[55] = Cmax in human at 400 mg administered with fat meal as single dose; type: ADME, organism-based; set-up: dose 400 mg; settings: in vivo
[56] = Oral bioavailability rat; type: ADME, organism-based; settings: in vivo

Cn1c(=O)c(C(=O)NCCO)c(O)c2ncc(Cc3ccc(F)cc3)cc21 [GSK-364735]
Tmax [1]: 3.25 h
AUC(0-inf) [2]: 5500 ng·h/mL
half-life [3]: 4.2 h
CL/F [4]: 683 mL/min
Activity (Homo sapiens [5]): 4%
AUC(0-inf) [6]: 11000 ng·h/mL
QH (Rhesus monkey): 4.6%
QH (Rattus norvegicus): 5.8%
IC50 [7]: 1.2 nM
Tmax [8]: 4 h
Cmax [9]: 1600 ng/mL
concentration at 12 h [10]: 130 ng/mL
Activity (Homo sapiens [11]): Non-toxic
AUC(0-inf) [12]: 5900 ng·h/mL
Cmax [13]: 2200 ng/mL
CL/F [14]: 317 mL/min
Activity (Homo sapiens [15]): 4%
Cmax [16]: 760 ng/mL
CL/F [17]: 1020 mL/min
Activity (Homo sapiens [18]): 63%
CL/F [19]: 367 mL/min
CL/F [20]: 550 mL/min
half-life [21]: 6.5 h
Tmax [22]: 3.75 h
Activity (Homo sapiens [23]): 25%
Activity (Homo sapiens [24]): Non-toxic
Activity (Homo sapiens [25]): Non-toxic
Cmax [26]: 1300 ng/mL
half-life [27]: 2.8 h
Activity (Homo sapiens [28]): Non-toxic
concentration at 12 h [29]: 160 ng/mL
Activity (Homo sapiens [30]): Non-toxic
Tmax [31]: 1.5 h
CL/F [32]: 138 mL/min
Activity (Homo sapiens [33]): 25%
Activity (Homo sapiens [34]): Non-toxic
AUC at 12 h [35]: 9600 ng·h/mL
half-life [36]: 4 h
concentration at 12 h [37]: 93 ng/mL
Tmax [38]: 5.5 h
half-life [39]: 4.4 h
Activity (Homo sapiens [40]): Non-toxic
CL/F [41]: 267 mL/min
Cmax [42]: 1300 ng/mL
fraction unbound (Homo sapiens [43]): 0.01
AUC at 24 h [44]: 12000 ng·h/mL
Activity (Homo sapiens [45]): 13%
AUC(0-inf) [46]: 3200 ng·h/mL
IC50 [47]: 42 nM
IC90 [47]: 168 nM
Cmax [48]: 740 ng/mL
CL/F [49]: 317 mL/min
CL/F [50]: 217 mL/min
half-life [51]: 3.7 h
half-life [52]: 3.7 h
Cmax [53]: 970 ng/mL
AUC at 8 h [54]: 4900 ng·h/mL
Cmax [55]: 840 ng/mL
bioavailability [56]: 6%
